Experiments:
Test in all cases: viability relative to DMSO control (fraction); higher = less drug effect (more viable cells)
Details in all cases: 48 h
[1] = test system: primary ALL patient cells (S048)
Procedure, shortened: (§1)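 Compounds were pre-plated at five concentrations, one well each, in 384-well plates, and primary mononuclear tumour cells were plated on them at 4 × 10^4 cells per well. The cells, fresh or cryopreserved, had been Ficoll-isolated from blood or bone marrow or taken from processed lymph node. After 48 h at 37 °C and 5% CO2 in RPMI-1640 with penicillin/streptomycin, L-glutamine and human serum, viability was read as CellTiter-Glo luminescence relative to the median of 16 inner DMSO wells.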

[2] = test system: primary ALL patient cells (S088)
Procedure, shortened: as §1

[3] = test system: primary AML patient cells (S006)
Procedure, shortened: as §1

[4] = test system: primary AML patient cells (S007)
Procedure, shortened: as §1

[5] = test system: primary AML patient cells (S011)
Procedure, shortened: as §1

[6] = test system: primary AML patient cells (S012)
Procedure, shortened: as §1

[7] = test system: primary AML patient cells (S019)
Procedure, shortened: as §1

[8] = test system: primary AML patient cells (S056)
Procedure, shortened: as §1

[9] = test system: primary AML patient cells (S079)
Procedure, shortened: as §1

[10] = test system: primary AML patient cells (S085)
Procedure, shortened: as §1

[11] = test system: primary CLL patient cells (S031)
Procedure, shortened: as §1

[12] = test system: primary DLBCL patient cells (S049)
Procedure, shortened: as §1

[13] = test system: primary DLBCL patient cells (S076)
Procedure, shortened: as §1

[14] = test system: primary FL patient cells (S022)
Procedure, shortened: as §1

[15] = test system: primary FL patient cells (S087)
Procedure, shortened: as §1

[16] = test system: primary MCL patient cells (S041)
Procedure, shortened: as §1

[17] = test system: primary MCL patient cells (S063)
Procedure, shortened: as §1

[18] = test system: primary T-NHL patient cells (S058)
Procedure, shortened: as §1

Work on `O=C(Nc1nc2ccccc2n1CCN1CCOCC1)c1cccc([N+](=O)[O-])c1` [IRAK-1/4 INHIBITOR I] yielded a viability ([1]; 0.016 µM) of 0.726, a viability ([1]; 0.08 µM) of 0.836 and a viability ([1]; 0.4 µM) of 0.811. It also gave a viability ([1]; 2 µM) of 0.834, a viability ([1]; 10 µM) of 0.808 and a viability ([2]; 0.016 µM) of 0.747. The viability ([2]; 0.08 µM) was 0.862, the viability ([2]; 0.4 µM) was 0.856 and the viability ([2]; 2 µM) was 0.826. The viability ([2]; 10 µM) was 0.941, the viability ([3]; 0.016 µM) was 0.952 and the viability ([3]; 0.08 µM) was 0.975. The viability ([3]; 0.4 µM) was 0.887, the viability ([3]; 2 µM) was 0.751 and the viability ([3]; 10 µM) was 0.691. The viability ([4]; 0.016 µM) was 1.01, the viability ([4]; 0.08 µM) was 0.989 and the viability ([4]; 0.4 µM) was 0.788. The viability ([4]; 2 µM) was 0.469, the viability ([4]; 10 µM) was 0.292 and the viability ([5]; 0.016 µM) was 0.949. The viability ([5]; 0.08 µM) was 0.934, the viability ([5]; 0.4 µM) was 0.972 and the viability ([5]; 2 µM) was 1.11. It also gave a viability ([5]; 10 µM) of 0.878, a viability ([6]; 0.016 µM) of 0.922 and a viability ([6]; 0.08 µM) of 0.993. The viability ([6]; 0.4 µM) was 0.908, the viability ([6]; 2 µM) was 0.954 and the viability ([6]; 10 µM) was 0.964. It also gave a viability ([7]; 0.016 µM) of 0.915, a viability ([7]; 0.08 µM) of 1.04 and a viability ([7]; 0.4 µM) of 0.913. The viability ([7]; 2 µM) was 0.867, the viability ([7]; 10 µM) was 0.909 and the viability ([8]; 0.016 µM) was 0.693. The viability ([8]; 0.08 µM) was 1.13, the viability ([8]; 0.4 µM) was 0.585 and the viability ([8]; 2 µM) was 0.817. The viability ([8]; 10 µM) was 0.783, the viability ([9]; 0.016 µM) was 0.929 and the viability ([9]; 0.08 µM) was 0.93. It also gave a viability ([9]; 0.4 µM) of 0.885, a viability ([9]; 2 µM) of 0.906 and a viability ([9]; 10 µM) of 0.949. The viability ([10]; 0.016 µM) was 0.957, the viability ([10]; 0.08 µM) was 0.985 and the viability ([10]; 0.4 µM) was 1.05. The viability ([10]; 2 µM) was 1.04, the viability ([10]; 10 µM) was 1.02 and the viability ([11]; 0.016 µM) was 0.897. For the same compound, the viability ([11]; 0.08 µM) was 0.91, the viability ([11]; 0.4 µM) was 0.906 and the viability ([11]; 2 µM) was 0.861. For the same compound, the viability ([11]; 10 µM) was 0.877, the viability ([12]; 0.016 µM) was 0.936 and the viability ([12]; 0.08 µM) was 0.955. For the same compound, the viability ([12]; 0.4 µM) was 0.834, the viability ([12]; 2 µM) was 0.833 and the viability ([12]; 10 µM) was 0.821. For the same compound, the viability ([13]; 0.016 µM) was 0.94, the viability ([13]; 0.08 µM) was 1.09 and the viability ([13]; 0.4 µM) was 1.01. The viability ([13]; 2 µM) was 1, the viability ([13]; 10 µM) was 1.11 and the viability ([14]; 0.016 µM) was 0.887. For the same compound, the viability ([14]; 0.08 µM) was 0.974, the viability ([14]; 0.4 µM) was 0.885 and the viability ([14]; 2 µM) was 0.915. The viability ([14]; 10 µM) was 0.913, the viability ([15]; 0.016 µM) was 0.933 and the viability ([15]; 0.08 µM) was 1.02. The viability ([15]; 0.4 µM) was 0.989, the viability ([15]; 2 µM) was 0.994 and the viability ([15]; 10 µM) was 1.08. The viability ([16]; 0.016 µM) was 0.947, the viability ([16]; 0.08 µM) was 1.1 and the viability ([16]; 0.4 µM) was 0.955. It also gave a viability ([16]; 2 µM) of 0.981, a viability ([16]; 10 µM) of 0.993 and a viability ([17]; 0.016 µM) of 0.993. It also gave a viability ([17]; 0.08 µM) of 0.961, a viability ([17]; 0.4 µM) of 1.02 and a viability ([17]; 2 µM) of 1.03. For the same compound, the viability ([17]; 10 µM) was 1.11, the viability ([18]; 0.016 µM) was 1.05 and the viability ([18]; 0.08 µM) was 1.25. It also gave a viability ([18]; 0.4 µM) of 1.02, a viability ([18]; 2 µM) of 1.07 and a viability ([18]; 10 µM) of 1.27.

Reference: the supplement of paper PMC10733146
